Converted amounts (≈) assume the structure as drawn. Like-named read-outs stand apart in the source and are kept apart here.
Experiments:
[1] = system: Escherichia coli AG100, AG112 and derived fluoroquinolone-resistant mutants with ΔacrAB; experiment: MIC by broth microdilution, AcrAB-deleted strains; type: cell-based; settings: for MIC: Escherichia coli; for Ofx MIC: AcrAB knocked out
Experimental: (§1) Susceptibility testing. MICs of selected antimicrobial agents were determined by a standard broth microdilution procedure with cation-adjusted Mueller-Hinton broth (Becton Dickinson, Cockeysville, Md.) and an inoculum of 5×10^5 CFU/ml according to NCCLS performance and interpretive guidelines (NCCLS. 1997. Methods for dilution antimicrobial susceptibility. Tests for bacteria that grow aerobically—Fourth Edition; Approved Standard. NCCLS document M7-A4 (ISBN 1-56238-309-4). NCCLS, 940 West Valley Road, Suite 1400, Wayne, Pa. 19087). Antimicrobial agents on the commercially available microtiter plates (Merlin Diagnostics GmbH, Bornheim, Germany) included the FQs ciprofloxacin (CIP), enoxacin, fleroxacin, nor-flo-xacin, ofloxacin (OFL), pefloxacin, sparfloxacin (SPX), and trovafloxacin (TVA). They also included tetracycline (TET), chloramphenicol (CML), trimethoprim (TMP), cefoxitin (CFOX), cefaclor, cefixim and loracarbef. MICs of bile salts were determined by a broth macrodilution procedure: sodium cholate and sodium deoxycholate were serially diluted twofold in LB broth and tubes inoculated at 5×10^5 CFU/ml. MICs of both antibiotics and bile salts were determined twice in independent experiments with reproducible results.
P1 transduction. […] DNA sequencing.

[2] = system: Escherichia coli K-12 AG100, its Mar mutant AG112 and derived fluoroquinolone-resistant mutants (acrAB+); experiment: MIC by broth microdilution, acrAB+ strains; type: cell-based; settings: for MIC: Escherichia coli; for Ofx MIC: with AcrAB
Experimental: Selection of fluoroquinolone-resistant mutants. 1-AG100, 2°-AG100, 3*-AG100, 4*-AG100 and 1′-AG112, 2′-AG112, 3′-AG112 were sequential step mutants derived from AG 100 and AG112, respectively, on solid media. For each step, about 10^11 cells of an overnight culture were plated on several LB agar plates supplemented with increasing concentrations of OFL. Single colonies were further purified on OFL-supplemented agar plates. Mutant 2°-AG100 came out of one series, while mutants 3*- and 4*-AG100 came from a second series.
as §1

[3] = system: Escherichia coli AG100, AG112 and derived mutants bearing ΔacrAB; settings: all strains, energized cells
[4] = system: Escherichia coli K-12 AG100, AG112 and derived fluoroquinolone-resistant mutants (wild-type acrAB); settings: whole energized cells
[5] = system: Escherichia coli K-12 AG100, its Mar mutant AG112 and derived fluoroquinolone-resistant mutants (acrAB+); experiment: MIC by broth microdilution, acrAB+ strains; type: cell-based
[6] = strain 1-AG112 (1′-AG112), ΔacrAB
[7] = strain 2-AG100 (2°-AG100), ΔacrAB
[8] = strain 2-AG112 (2′-AG112), ΔacrAB
[9] = strain 3-AG112 (3′-AG112), ΔacrAB
[10] = strain 1-AG100, acrAB+, read-out: MIC
[11] = strain 1-AG112 (1′-AG112), acrAB+, read-out: MIC
[12] = strain 2-AG100 (2°-AG100), acrAB+, read-out: MIC
[13] = strain 2-AG112 (2′-AG112), acrAB+, read-out: MIC
[14] = strain 3*-AG100, acrAB+, read-out: MIC
[15] = strain 3-AG112 (3′-AG112), acrAB+, read-out: MIC
[16] = strain 4*-AG100, acrAB+, read-out: MIC
[17] = strain AG100, acrAB+, read-out: MIC
[18] = strain AG112 (Mar mutant), acrAB+

## CO[C@@]1(NC(=O)Cc2cccs2)C(=O)N2C(C(=O)O)=C(COC(N)=O)CS[C@@H]21 [CFOX, cefoxitin]
[1]; strain 1-AG100, ΔacrAB
  MIC: 0.5 µg/mL (≈ 1.17 µM)
[1]; [6]
  MIC: 1 µg/mL (≈ 2.34 µM)
[1]; [7]
  MIC: 0.5 µg/mL (≈ 1.17 µM)
[1]; [8]
  MIC: 0.5 µg/mL (≈ 1.17 µM)
[1]; strain 3*-AG100, ΔacrAB
  MIC: 0.5 µg/mL (≈ 1.17 µM)
[1]; [9]
  MIC: 0.5 µg/mL (≈ 1.17 µM)
[1]; strain 4*-AG100, ΔacrAB
  MIC: 1 µg/mL (≈ 2.34 µM)
[1]; strain AG100, ΔacrAB
  MIC: 0.5 µg/mL (≈ 1.17 µM)
[1]; strain AG112, ΔacrAB
  MIC: 1 µg/mL (≈ 2.34 µM)
[2]; [10]
  MIC: 4 µg/mL (≈ 9.36 µM)
[2]; [11]
  MIC: 16 µg/mL (≈ 37.4 µM)
[2]; [12]
  MIC: 16 µg/mL (≈ 37.4 µM)
[2]; [13]
  MIC: 32 µg/mL (≈ 74.9 µM)
[2]; [14]
  MIC: 32 µg/mL (≈ 74.9 µM)
[2]; [15]
  MIC: 64 µg/mL (≈ 150 µM)
[2]; [16]
  MIC: 32 µg/mL (≈ 74.9 µM)
[2]; [17]
  MIC: 4 µg/mL (≈ 9.36 µM)
[2]; [18]
  MIC: 32 µg/mL (≈ 74.9 µM)

## O=C(O)c1cn(C2CC2)c2cc(N3CCNCC3)c(F)cc2c1=O [CIP, ciprofloxacin]
[3]
  Active efflux of ciprofloxacin upon deletion of AcrAB: completely aborted
[3]; listed as cfx
  Active efflux of ciprofloxacin upon deletion of AcrAB: completely abolished
[4]
  Time at which CIP accumulation reached a plateau: ≤ 5 min
[1]; strain 1-AG100, ΔacrAB
  MIC: 0.06 µg/mL (≈ 0.181 µM)
[1]; [6]
  MIC: 0.03 µg/mL (≈ 0.0905 µM)
[1]; [7]
  MIC: 0.06 µg/mL (≈ 0.181 µM)
[1]; [8]
  MIC: 0.03 µg/mL (≈ 0.0905 µM)
[1]; strain 3*-AG100, ΔacrAB
  MIC: 0.06 µg/mL (≈ 0.181 µM)
[1]; [9]
  MIC: 0.03 µg/mL (≈ 0.0905 µM)
[1]; strain 4*-AG100, ΔacrAB
  MIC: 0.125 µg/mL (≈ 0.377 µM)
[1]; strain AG100, ΔacrAB
  MIC: ≤ 0.015 µg/mL
[1]; strain AG112, ΔacrAB
  MIC: ≤ 0.015 µg/mL
[2]; [10]
  MIC: 0.25 µg/mL (≈ 0.754 µM)
[2]; [11]
  MIC: 0.5 µg/mL (≈ 1.51 µM)
[2]; strain 2-AG100 (2°-AG100), acrAB+
  MIC: 0.5 µg/mL (≈ 1.51 µM)
[2]; [13]
  MIC: 2 µg/mL (≈ 6.04 µM)
[2]; [14]
  MIC: 1 µg/mL (≈ 3.02 µM)
[2]; [15]
  MIC: 4 µg/mL (≈ 12.1 µM)
[2]; [16]
  MIC: 2 µg/mL (≈ 6.04 µM)
[2]; [17]
  MIC: ≤ 0.015 µg/mL
[2]; [18]
  MIC: 0.06 µg/mL (≈ 0.181 µM)

## O=C(N[C@H](CO)[C@H](O)c1ccc([N+](=O)[O-])cc1)C(Cl)Cl [CML, chloramphenicol]
[1]; strain 1-AG100, ΔacrAB
  MIC: 1 µg/mL (≈ 3.09 µM)
[1]; [6]
  MIC: 1 µg/mL (≈ 3.09 µM)
[1]; [7]
  MIC: 1 µg/mL (≈ 3.09 µM)
[1]; [8]
  MIC: 1 µg/mL (≈ 3.09 µM)
[1]; strain 3*-AG100, ΔacrAB
  MIC: 1 µg/mL (≈ 3.09 µM)
[1]; [9]
  MIC: 1 µg/mL (≈ 3.09 µM)
[1]; strain 4*-AG100, ΔacrAB
  MIC: 1 µg/mL (≈ 3.09 µM)
[1]; strain AG100, ΔacrAB
  MIC: 1 µg/mL (≈ 3.09 µM)
[1]; strain AG112, ΔacrAB
  MIC: 1 µg/mL (≈ 3.09 µM)
[2]; [10]
  MIC: 4 µg/mL (≈ 12.4 µM)
[2]; [11]
  MIC: 32 µg/mL (≈ 99 µM)
[2]; [12]
  MIC: 16 µg/mL (≈ 49.5 µM)
[2]; [13]
  MIC: 64 µg/mL (≈ 198 µM)
[2]; [14]
  MIC: 32 µg/mL (≈ 99 µM)
[2]; [15]
  MIC: 64 µg/mL (≈ 198 µM)
[2]; [16]
  MIC: 64 µg/mL (≈ 198 µM)
[2]; [17]
  MIC: 4 µg/mL (≈ 12.4 µM)
[2]; [18]
  MIC: 16 µg/mL (≈ 49.5 µM)

## CC1COc2c(N3CCN(C)CC3)c(F)cc3c(=O)c(C(=O)O)cn1c23 (centres unmarked) [OFL, ofloxacin]
[5]; AG102, three steps, 0.125 mg/l to 8 mg/l
  Enhancement of ofx resistance by in-vitro amplification: 64 fold
[5]; AG102 series, 1st step mutant, with AcrAB
  Ofx MIC: 1.0 µg/mL
[1]; AG100 series, 1st step mutant
  Ofx MIC: 0.06 µg/mL
[1]; AG100 series, 2nd step mutant
  Ofx MIC: 0.06 µg/mL
[1]; AG100 series, 3rd step mutant
  Ofx MIC: 0.06 µg/mL
[1]; AG100 series, 4th step mutant
  Ofx MIC: 0.125 µg/mL
[1]; AG100 series, parent
  Ofx MIC: < 0.015 µg/mL
[1]; AG102 series, 1st step mutant
  Ofx MIC: 0.06 µg/mL
[1]; AG102 series, 2nd step mutant
  Ofx MIC: 0.06 µg/mL
[1]; AG102 series, 3rd step mutant
  Ofx MIC: 0.06 µg/mL
[1]; AG102 series, parent
  Ofx MIC: < 0.015 µg/mL
[1]; strain 1-AG100, ΔacrAB
  MIC: 0.06 µg/mL (≈ 0.166 µM)
[1]; [6]
  MIC: 0.06 µg/mL (≈ 0.166 µM)
[1]; [7]
  MIC: 0.06 µg/mL (≈ 0.166 µM)
[1]; [8]
  MIC: 0.06 µg/mL (≈ 0.166 µM)
[1]; strain 3*-AG100, ΔacrAB
  MIC: 0.06 µg/mL (≈ 0.166 µM)
[1]; [9]
  MIC: 0.06 µg/mL (≈ 0.166 µM)
[1]; strain 4*-AG100, ΔacrAB
  MIC: 0.125 µg/mL (≈ 0.346 µM)
[1]; strain AG100, ΔacrAB
  MIC: ≤ 0.015 µg/mL
[1]; strain AG112, ΔacrAB
  MIC: ≤ 0.015 µg/mL
[2]; AG100, four steps, 0.03 mg/l to 4 mg/l
  Enhancement of ofx resistance by in-vitro amplification: 128 fold
[2]; AG100 series, 1st step mutant
  Ofx MIC: 0.25 µg/mL
[2]; AG100 series, 2nd step mutant
  Ofx MIC: 1.0 µg/mL
[2]; AG100 series, 3rd step mutant
  Ofx MIC: 2.0 µg/mL
[2]; AG100 series, 4th step mutant
  Ofx MIC: 4.0 µg/mL
[2]; AG100 series, parent
  Ofx MIC: 0.03 µg/mL
[2]; AG102 series, 2nd step mutant
  Ofx MIC: 4.0 µg/mL
[2]; AG102 series, 3rd step mutant
  Ofx MIC: 8.0 µg/mL
[2]; AG102 series, parent (Mar mutant)
  Ofx MIC: 0.125 µg/mL
[2]; [10]
  MIC: 0.25 µg/mL (≈ 0.692 µM)
[2]; [11]
  MIC: 1 µg/mL (≈ 2.77 µM)
[2]; [12]
  MIC: 1 µg/mL (≈ 2.77 µM)
[2]; [13]
  MIC: 4 µg/mL (≈ 11.1 µM)
[2]; [14]
  MIC: 2 µg/mL (≈ 5.53 µM)
[2]; [15]
  MIC: 8 µg/mL (≈ 22.1 µM)
[2]; [16]
  MIC: 4 µg/mL (≈ 11.1 µM)
[2]; [17]
  MIC: 0.03 µg/mL (≈ 0.083 µM)
[2]; [18]
  MIC: 0.125 µg/mL (≈ 0.346 µM)
[2]; strain 1-AG100, as compared to AG100 (wild-type)
  Fold increase of OFL MIC: 8 fold
[2]; strain 1-AG112 (1′-AG112), as compared to AG100 (wild-type)
  Fold increase of OFL MIC: 32 fold
[2]; strain 2-AG100 (2°-AG100), as compared to AG100 (wild-type)
  Fold increase of OFL MIC: 32 fold
[2]; strain 2-AG112, as compared to AG100 (wild-type)
  Fold increase of OFL MIC: 128 fold
[2]; strain 3*-AG100, as compared to AG100 (wild-type)
  Fold increase of OFL MIC: 64 fold
[2]; strain 3-AG112, as compared to AG100 (wild-type)
  Fold increase of OFL MIC: 256 fold
[2]; strain 4*-AG100, as compared to AG100 (wild-type)
  Fold increase of OFL MIC: 128 fold
[2]; strain AG112, as compared to AG100 (wild-type)
  Fold increase of OFL MIC: 4 fold
[2]; {}
  Increase of resistance to OFL by the first mutation step: 8 fold
